Laboratory results taken from ChEMBL document CHEMBL1201862, “PubChem BioAssay data set” (2004).
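Following 48 hours of exposure in 96-well plates, responses at five concentrations were used to interpolate endpoints linearly. At the GI50, growth is halved.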 Activity calls are given as the source filed them. No stated cut-off is given here; in the data, active = GI50 up to about 1.1 µM and inactive = higher.

Columns and labels:
Assay in all cases: NCI-60 cell line screen, 48 h
[1] = tested on: SF-295
[2] = tested on: CAKI-1
[3] = tested on: DLD-1
[4] = tested on: A549
[5] = tested on: SF-268
[6] = tested on: IGROV-1
[7] = tested on: TK-10
[8] = tested on: UACC-62
[9] = tested on: SR
[10] = tested on: HT-29
[11] = tested on: RXF 393
[12] = tested on: Malme-3M
[13] = tested on: OVCAR-5
[14] = tested on: HL-60
[15] = tested on: HOP-92
[16] = tested on: NCI-H226
[17] = tested on: U-251
[18] = tested on: M14
[19] = tested on: NCI-H522

Measured: GI50

N#CC(C(=O)C(=O)Nc1ccc(Cl)cc1)c1ccccc1 (stereo not drawn)
inactive: [1] > 100 µM | [2] > 100 µM | [3] > 100 µM | [4] > 100 µM | [5] > 100 µM | [6] > 100 µM | [7] > 100 µM | [8] 22.6 µM | [9] > 100 µM | [10] > 100 µM | [11] > 100 µM | [12] > 100 µM | [13] > 100 µM | [14] > 100 µM | [15] > 100 µM | [16] > 100 µM | [17] > 100 µM | [18] > 100 µM

COC(=O)C1=Cc2cc3c(cc2[C@H](c2ccc4c(c2)OCO4)C1C(=O)OC)OCO3 (stereo partly drawn)
inactive: [1] 38.5 µM | [2] 74.1 µM | [3] 54.5 µM | [4] > 100 µM | [5] > 100 µM | [6] 1.73 µM | [7] > 100 µM | [8] 58.6 µM | [9] 59.4 µM | [10] 36.2 µM | [11] 80.4 µM | [12] > 100 µM | [13] > 100 µM | [14] 65.6 µM | [15] 27.4 µM | [16] > 100 µM | [17] 61.4 µM | [18] 68.1 µM

COC(=O)/C(=N\NC(N)=O)C(C#N)c1ccccc1 (stereo not drawn)
inactive: [19] > 100 µM | [1] > 100 µM | [3] > 100 µM | [4] > 100 µM | [5] > 100 µM | [7] > 100 µM | [8] > 100 µM | [10] > 100 µM | [11] > 100 µM | [12] > 100 µM | [13] > 100 µM | [14] > 100 µM | [16] > 100 µM | [17] > 100 µM | [18] > 100 µM

CCOC(=O)C(Cc1c(C=O)[nH]c2ccccc12)(NC(=O)c1ccccc1)C(=O)OCC
inactive: [1] 14.4 µM | [3] 7.93 µM | [4] 19.1 µM | [5] 15 µM | [6] 20.4 µM | [7] 22.4 µM | [9] > 100 µM | [10] 16.4 µM | [11] 11 µM | [12] 17.7 µM | [13] 20.5 µM | [14] > 100 µM | [15] 11.7 µM | [16] 19.5 µM | [17] 11.6 µM | [18] 17 µM

O=C(/C=C/c1ccc(O)c(O)c1)OC1C[C@@](O)(C(=O)O)C[C@@H](O)[C@H]1OC(=O)/C=C/c1ccc(O)c(O)c1 (stereo partly drawn)
inactive: [19] > 100 µM | [1] > 100 µM | [3] > 100 µM | [4] > 100 µM | [5] > 100 µM | [6] > 100 µM | [7] > 100 µM | [8] > 100 µM | [9] > 100 µM | [10] > 100 µM | [11] > 100 µM | [12] > 100 µM | [13] > 100 µM | [14] > 100 µM | [15] > 100 µM | [16] > 100 µM | [17] > 100 µM | [18] > 100 µM

COC(=O)CCC(=O)NC1C2CC3CC(C2)CC1C3 (stereo not drawn)
inactive: [19] > 100 µM | [1] > 100 µM | [2] > 100 µM | [3] > 100 µM | [4] > 100 µM | [5] > 100 µM | [6] > 100 µM | [7] > 100 µM | [8] > 100 µM | [10] > 100 µM | [11] > 100 µM | [12] > 100 µM | [13] > 100 µM | [14] > 100 µM | [15] > 100 µM | [17] > 100 µM | [18] > 100 µM

Cc1ccc(C(=O)CC2(O)C(=O)Nc3c(C)cc(Cl)cc32)cc1 (stereo not drawn)
inactive: [19] > 100 µM | [1] > 100 µM | [2] > 100 µM | [3] > 100 µM | [4] > 100 µM | [5] > 100 µM | [7] > 100 µM | [10] > 100 µM | [11] > 100 µM | [12] > 100 µM | [13] > 100 µM | [14] 59.8 µM | [15] > 100 µM | [16] > 100 µM | [17] > 100 µM | [18] > 100 µM

Cc1c2ccccc2cc2ccc3oc([N+](=O)[O-])cc3c12
inactive: [1] > 100 µM | [2] > 100 µM | [3] > 100 µM | [4] > 100 µM | [5] > 100 µM | [6] > 100 µM | [7] > 100 µM | [8] > 100 µM | [10] > 100 µM | [11] > 100 µM | [12] > 100 µM | [13] > 100 µM | [14] 3.93 µM | [15] > 100 µM | [17] > 100 µM | [18] 4.46 µM

CCOC(=O)C(c1ccsc1)P(=O)(OCC)OCC (stereo not drawn)
inactive: [19] 3.89 µM | [1] 17.3 µM | [2] 14.1 µM | [3] 12.8 µM | [4] 22.4 µM | [5] 23.2 µM | [7] 25.4 µM | [8] 8.22 µM | [10] 15.9 µM | [11] 13.1 µM | [12] 23.2 µM | [13] 23.1 µM | [15] 24.3 µM | [16] 18.4 µM | [17] 17.9 µM | [18] 12.9 µM

COc1ccc(/C=C2\N=C(c3ccccc3)OC2=O)c(OCc2ccccc2)c1
inactive: [19] 24.6 µM | [1] 17.9 µM | [2] 85.1 µM | [3] 17.7 µM | [4] 41.5 µM | [5] 54.2 µM | [6] 18.8 µM | [8] 19.7 µM | [9] 21.7 µM | [12] 39.4 µM | [13] > 100 µM | [14] 40.4 µM | [16] 53.2 µM | [18] 49.7 µM

CC1=C(C(=O)Nc2cc(F)c(F)cc2F)C(c2ccc([N+](=O)[O-])cc2)C(C(=O)Nc2cc(F)c(F)cc2F)=C(C)N1
inactive: [19] 15.7 µM | [1] 56.1 µM | [2] 18.5 µM | [3] 30.5 µM | [4] 37.8 µM | [5] 22.2 µM | [6] 28.2 µM | [7] 22.5 µM | [10] 34.1 µM | [11] 10.6 µM | [12] 27.2 µM | [13] 35 µM | [14] 11.2 µM | [15] 12.8 µM | [16] 37.8 µM | [17] 30.7 µM | [18] 54.2 µM

Cc1ccccc1NC(=O)c1cc(-c2ccc([N+](=O)[O-])cc2)nc(S)n1
inactive: [1] > 100 µM | [2] > 100 µM | [3] > 100 µM | [4] > 100 µM | [5] > 100 µM | [6] > 100 µM | [7] > 100 µM | [8] > 100 µM | [10] > 100 µM | [11] > 100 µM | [12] > 100 µM | [13] > 100 µM | [14] > 100 µM | [15] > 100 µM | [16] > 100 µM | [17] > 100 µM | [18] > 100 µM
